Strand notation (5' to 3'): a small letter for the sugar, then the base; units joined by * are phosphorothioate-linked, units joined directly phosphodiester-linked; [ ] holds rarer units or linkages, { } end groups; capitals alone tell only the bases. e = 2'-O-(2-methoxyethyl) (MOE); [5mC] = 5-methylcytosine; d = 2'-deoxy (DNA)
Legend:
PTP1B mRNA [1] = experiment: Dose response for human PTP1B in HuVEC cells, Primer Probe Set 198 (Example 25, Table 86); assay type: cell-based
Experimental: (§1) Human vascular endothelial (HuVEC) cells were plated at a density of 5000 cells per well and treated as described herein with nM concentrations of short antisense compound as indicated in Table 86. After the treatment period, RNA was isolated from the cells and PTP1B mRNA levels were measured by quantitative real-time PCR, as described herein. PTP1B mRNA levels were adjusted according to total RNA content as measured by RIBOGREEN®. Two different human PTP1B primer probe sets were used to measure mRNA levels. Results with Primer Probe Set (PPS) 198 are shown in Table 86, and results with Primer Probe Set (PPS) 3000 are shown in Table 87. Results are presented as percent inhibition of PTP1B mRNA expression relative to untreated control cells.

PTP1B mRNA [2] = experiment: Dose response for human PTP1B in HuVEC cells, Primer Probe Set 3000 (Example 25, Table 87); assay type: cell-based
Experimental: as §1

PCSK9 mRNA [3] = assay type: cell-based, human; settings: Hep3B cells, 100 nM, relative to untreated control cells; for % Inhib (PCSK9 mRNA): 0 = no reduction observed
Experimental: When cells reached appropriate confluency, they were treated with oligonucleotide using LIPOFECTIN® as described. […] Cells were treated and data were obtained in duplicate or triplicate. […] Cells were harvested 16-24 hours after oligonucleotide treatment.
Short antisense compounds targeted to a PCSK9 nucleic acid were tested for their effects on PCSK9 mRNA in vitro. The Isis No, gapmer motif and SEQ ID NO of each short antisense compound are shown again in Table 75. Cultured Hep3B cells were treated with 100 nM of short antisense compound. 5-10-5 MOE gapmers targeted to a PCSK9 nucleic acid were used as positive controls. After the treatment period, RNA was isolated from the cells and PCSK9 mRNA levels were measured by quantitative real-time PCR, as described herein. PCSK9 mRNA levels were adjusted according to total RNA content as measured by RIBOGREEN®. Results are presented in Table 75 as percent inhibition of PCSK9 (% Inhib), relative to untreated control cells.

PCSK9 mRNA [4] = experiment: Dose-dependent inhibition of PCSK9 in Hep3B cells with EC50 (Example 19, Table 76); assay type: cell-based, human
Experimental: Short antisense compounds targeted to a PCSK9 nucleic acid were tested in a dose response experiment Hep3B cells. After the treatment period, RNA was isolated from the cells and PCSK9 mRNA levels were measured by quantitative real-time PCR, as described herein. PCSK9 mRNA levels were normalized to cyclophilin mRNA levels, as measured by real-time PCR using a cyclophilin-specific primer probe set. Results are presented as percent inhibition of PCSK9, relative to untreated control cells. […] As illustrated in the following table, PCSK9 mRNA levels were reduced in a dose-dependent manner.

Row | Substance | % Inhibition of PTP1B mRNA (PTP1B mRNA [1]; PPS 198, 1.11 nM) [%] | % Inhibition of PTP1B mRNA (PTP1B mRNA [1]; PPS 198, 3.33 nM) [%] | % Inhibition of PTP1B mRNA (PTP1B mRNA [1]; PPS 198, 10.0 nM) [%] | % Inhibition of PTP1B mRNA (PTP1B mRNA [1]; PPS 198, 30.0 nM) [%] | % Inhibition of PTP1B mRNA (PTP1B mRNA [2]; PPS 3000, 1.11 nM) [%] | % Inhibition of PTP1B mRNA (PTP1B mRNA [2]; PPS 3000, 3.33 nM) [%] | % Inhibition of PTP1B mRNA (PTP1B mRNA [2]; PPS 3000, 10.0 nM) [%] | % Inhibition of PTP1B mRNA (PTP1B mRNA [2]; PPS 3000, 30.0 nM) [%] | % Inhibition Range (PCSK9 mRNA) (PCSK9 mRNA [3]) | % Inhib (PCSK9 mRNA) (PCSK9 mRNA [3]) [%] | % Inhibition of PCSK9 (PCSK9 mRNA [4]; 5 nM) [%] | % Inhibition of PCSK9 (PCSK9 mRNA [4]; 10 nM) [%] | % Inhibition of PCSK9 (PCSK9 mRNA [4]; 20 nM) [%] | % Inhibition of PCSK9 (PCSK9 mRNA [4]; 40 nM) [%] | % Inhibition of PCSK9 (PCSK9 mRNA [4]; 80 nM) [%] | % Inhibition of PCSK9 (PCSK9 mRNA [4]; 160 nM) [%]
1 | 399096 (antisense eT*eG*d[5mC]*dT*d[5mC]*dG*dA*dA*d[5mC]*dT*d[5mC]*d[5mC]*eT*eT) [compound 399096] | 3 | 30 | 78 | 96 | 0 | 23 | 75 | 94 | – | – | – | – | – | – | – | –
2 | 399102 (antisense eG*eA*dA*dG*dT*d[5mC]*dA*d[5mC]*dT*dG*dG*d[5mC]*eT*eT) [compound 399102] | 0 | 15 | 62 | 88 | 0 | 9 | 60 | 87 | – | – | – | – | – | – | – | –
3 | 399113 (antisense eG*eT*dT*dA*dG*dG*d[5mC]*dA*dA*dA*dG*dG*eG*e[5mC]) [compound 399113] | 0 | 31 | 72 | 90 | 0 | 9 | 65 | 90 | – | – | – | – | – | – | – | –
4 | 399132 (antisense eG*eG*dG*d[5mC]*dT*dG*dA*dG*dT*dG*dA*d[5mC]*e[5mC]*e[5mC]) [compound 399132] | 0 | 32 | 75 | 95 | 0 | 26 | 76 | 91 | – | – | – | – | – | – | – | –
5 | 399173 (antisense eA*eT*dG*d[5mC]*dT*dA*dG*dT*dG*d[5mC]*dA*d[5mC]*eT*eA) [compound 399173] | 0 | 24 | 63 | 89 | 0 | 11 | 59 | 92 | – | – | – | – | – | – | – | –
6 | 399208 (antisense eA*eG*d[5mC]*dT*d[5mC]*dG*d[5mC]*dT*dA*d[5mC]*d[5mC]*dT*e[5mC]*eT) [compound 399208] | 0 | 37 | 86 | 93 | 0 | 47 | 85 | 96 | – | – | – | – | – | – | – | –
7 | 399276 (antisense eG*eA*dG*dG*dT*dA*dT*d[5mC]*d[5mC]*d[5mC]*dA*dT*e[5mC]*eT) [compound 399276] | 0 | 8 | 61 | 89 | 0 | 14 | 64 | 86 | – | – | – | – | – | – | – | –
8 | 399315 (antisense eG*eG*d[5mC]*dA*dA*d[5mC]*dT*dT*d[5mC]*dA*dA*d[5mC]*e[5mC]*eT) [compound 399315] | 0 | 20 | 68 | 88 | 0 | 25 | 71 | 93 | – | – | – | – | – | – | – | –
9 | 400307 (e[5mC]*eG*dG*d[5mC]*d[5mC]*dG*d[5mC]*dT*dG*dA*d[5mC]*d[5mC]*eA*e[5mC]; antisense) [compound 400307] | – | – | – | – | – | – | – | – | 70-80% | 76 | 35 | 39 | 45 | 56 | 92 | 93
10 | 400308 (e[5mC]*e[5mC]*dG*dG*d[5mC]*d[5mC]*dG*d[5mC]*dT*dG*dA*d[5mC]*e[5mC]*eA; antisense) [compound 400308] | – | – | – | – | – | – | – | – | 50-60% | 55 | 31 | 10 | 26 | 40 | 77 | 86
11 | 400309 (e[5mC]*e[5mC]*d[5mC]*dG*dG*d[5mC]*d[5mC]*dG*d[5mC]*dT*dG*dA*e[5mC]*e[5mC]; antisense) [compound 400309] | – | – | – | – | – | – | – | – | 40-50% | 44 | 49 | 23 | 38 | 12 | 72 | 78
12 | 400327 (eG*eT*d[5mC]*d[5mC]*d[5mC]*d[5mC]*dA*dA*dA*dG*dT*d[5mC]*e[5mC]*e[5mC]; antisense) [compound 400327] | – | – | – | – | – | – | – | – | 30-40% | 36 | 5 | 37 | 23 | 49 | 43 | 55
13 | 400330 (e[5mC]*e[5mC]*dA*d[5mC]*dG*dT*dG*dG*dG*d[5mC]*dA*dG*e[5mC]*eA; antisense) [compound 400330] | – | – | – | – | – | – | – | – | 40-50% | 43 | 8 | 32 | 40 | 69 | 82 | 71

— patent US8188059B2, “Compounds and methods for modulating expression of GCGR” (Isis Pharmaceuticals, Inc., priority 2006, dated 2012)
